Data published in US20230265151A1, “GIP/GLP1 CO-AGONIST COMPOUNDS” (priority 2020, published 2023).
Where two headings read alike, the source gives them in different places. *1 amine or outer side, *2 acyl side, *3 side chain or, on linkers, in order; H or OH if unused. Where a SMILES comes first, the peptide text is derived from it. Side-chain parts run from the residue outwards. [ ]: non-standard residue; d: D form. The star is where a group is joined. Decanoyl(10-(4-HOOC-PhO)) = O=C(O)c1ccc(OCCCCCCCCCC(=O)*)cc1; αMePhe(2-F) = C[C@](N)(Cc1ccccc1F)C(=O)O; γGlu = O=C(O)[C@H](CCC(=O)[*:2])N[*:1]; αMeY = C[C@](N)(Cc1ccc(O)cc1)C(=O)O; αMeL = CC(C)C[C@](C)(N)C(=O)O; Orn = NCCC[C@H](N)C(=O)O; AEEA = NCCOCCOCC(=O)O; Aib = CC(C)(N)C(=O)O

Legend:
[1] = molecular target: T1, human Gcg receptor (hGcgR) (Homo sapiens, UniProt P47871); assay: [125I]-Glucagon binding, SPA with membranes of HEK293 cells expressing hGcgR
T1 construct: expressed in transfected cells; crude membranes

hGIPR = molecular target: T2, hGIPR (Homo sapiens, UniProt P48546); assay: Functional cAMP formation (HTRF) in HEK-293 clonal cells expressing hGIPR, 0.1% bovine casein, without or with 1.0% human serum albumin; assay type: cell-based; conditions: for EC50: geometric mean
T2 construct: expressed in transfected cells
T2 sequence (P48546 22-466): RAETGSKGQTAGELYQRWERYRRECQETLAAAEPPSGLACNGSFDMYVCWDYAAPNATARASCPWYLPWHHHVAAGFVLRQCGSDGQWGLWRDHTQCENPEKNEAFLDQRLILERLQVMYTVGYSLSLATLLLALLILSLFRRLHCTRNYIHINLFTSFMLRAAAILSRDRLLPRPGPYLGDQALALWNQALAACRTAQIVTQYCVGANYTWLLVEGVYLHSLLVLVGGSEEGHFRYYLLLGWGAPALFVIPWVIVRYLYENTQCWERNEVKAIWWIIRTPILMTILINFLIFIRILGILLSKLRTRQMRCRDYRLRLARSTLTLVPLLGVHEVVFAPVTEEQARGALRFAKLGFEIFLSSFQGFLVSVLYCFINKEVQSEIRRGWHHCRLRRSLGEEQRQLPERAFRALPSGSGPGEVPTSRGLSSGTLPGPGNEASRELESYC
Outline: (§1)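 Cells were stimulated with peptide for 30 min at 37° C, then intracellular cAMP was measured by competitive HTRF (665/620 nm ratio) and converted to nM using a cAMP standard curve. Relative EC50 and Emax came from four-parameter logistic fits of percent maximal response against peptide concentration.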

hGLP-1R = hGLP-1R (Homo sapiens, UniProt P43220); assay: Functional cAMP formation (HTRF) in HEK-293 clonal cells expressing hGLP-1R, 0.1% bovine casein, without or with 1.0% human serum albumin; assay type: cell-based; design: expressed in transfected cells
Outline: as §1

hGCGR = molecular target: T3, hGCGR (Homo sapiens, UniProt P47871); assay: Functional cAMP formation (HTRF) in HEK-293 clonal cells expressing hGCGR, 0.1% bovine casein, without or with 1.0% human serum albumin; assay type: cell-based
T3 construct: expressed in transfected cells
Outline: as §1

[2] = molecular target: T4, human GLP-1 receptor (hGLP-1R) (Homo sapiens, UniProt P43220); assay: [125I]-GLP-1 binding, SPA with membranes of HEK293 cells expressing hGLP-1R
T4 construct: expressed in transfected cells; crude membranes

T1 sequence (P47871 26-477): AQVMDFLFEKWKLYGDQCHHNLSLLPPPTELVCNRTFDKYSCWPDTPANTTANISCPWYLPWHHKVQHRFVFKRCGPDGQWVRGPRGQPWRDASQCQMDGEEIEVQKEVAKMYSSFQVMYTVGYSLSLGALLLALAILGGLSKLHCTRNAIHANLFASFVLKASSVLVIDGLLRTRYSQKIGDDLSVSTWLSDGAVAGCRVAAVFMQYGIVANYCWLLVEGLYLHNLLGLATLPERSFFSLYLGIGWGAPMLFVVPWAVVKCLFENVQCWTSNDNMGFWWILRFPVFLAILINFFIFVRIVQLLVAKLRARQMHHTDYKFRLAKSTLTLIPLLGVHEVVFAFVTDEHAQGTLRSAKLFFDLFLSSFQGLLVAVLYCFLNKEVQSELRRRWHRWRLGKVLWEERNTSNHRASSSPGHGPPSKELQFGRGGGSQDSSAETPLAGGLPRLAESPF
T3 sequence (P47871 26-477): as above
Sequence of hGLP-1R (P43220 24-463): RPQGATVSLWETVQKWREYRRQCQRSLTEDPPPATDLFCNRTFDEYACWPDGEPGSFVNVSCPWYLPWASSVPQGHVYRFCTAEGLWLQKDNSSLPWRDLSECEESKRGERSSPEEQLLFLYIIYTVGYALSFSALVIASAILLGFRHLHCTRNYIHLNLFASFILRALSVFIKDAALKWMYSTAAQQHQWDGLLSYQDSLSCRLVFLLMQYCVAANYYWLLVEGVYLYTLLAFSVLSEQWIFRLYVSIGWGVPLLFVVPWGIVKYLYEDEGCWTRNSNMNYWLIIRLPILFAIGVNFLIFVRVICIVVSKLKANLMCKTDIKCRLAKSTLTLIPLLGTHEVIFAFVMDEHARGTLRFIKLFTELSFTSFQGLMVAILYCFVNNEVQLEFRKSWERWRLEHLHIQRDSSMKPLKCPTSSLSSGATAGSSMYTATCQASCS

Which Ki [1] does the source give for `CC[C@H](C)[C@H](NC(=O)[C@H](CC(C)C)NC(=O)[C@](C)(Cc1ccc(O)cc1)NC(=O)[C@@H](CCC(=O)O)NC(=O)[C@@H](NC(=O)[C@H](Cc1ccccc1)NC(=O)[C@H](CCC(=O)O)NC(=O)C(C)(C)NC(=O)[C@H](CCC(N)=O)NC(=O)[C@H](C)NC(=O)[C@H](CCCCNC(=O)COCCOCCNC(=O)COCCOCCNC(=O)CC[C@H](NC(=O)CCCCCCCCCOc1ccc(C(=O)O)cc1)C(=O)O)NC(=O)[C@H](CCCN)NC(=O)[C@H](CC(=O)O)NC(=O)[C@H](CC(C)C)NC(=O)[C@](C)(CC(C)C)NC(=O)[C@@H](NC(=O)[C@H](CO)NC(=O)[C@H](Cc1ccncc1)NC(=O)[C@H](CC(=O)O)NC(=O)[C@H](CO)NC(=O)[C@@H](NC(=O)[C@](C)(Cc1ccccc1F)NC(=O)[C@@H](NC(=O)CNC(=O)[C@H](CCC(=O)O)NC(=O)C(C)(C)NC(=O)[C@@H](N)Cc1ccc(O)cc1)[C@@H](C)O)[C@@H](C)O)[C@@H](C)CC)[C@@H](C)CC)C(=O)N[C@@H](CCC(=O)O)C(=O)NCC(=O)NCC(=O)N[C@@H](CCCCNC(=O)COCCOCCNC(=O)COCCOCCNC(=O)CC[C@H](NC(=O)CCCCCCCCCOc1ccc(C(=O)O)cc1)C(=O)O)C(=O)N[C@@H](CO)C(=O)N[C@@H](CO)C(=O)NCC(=O)N[C@@H](C)C(=O)N1CCC[C@H]1C(=O)N1CCC[C@H]1C(=O)N1CCC[C@H]1C(=O)N[C@@H](CO)C(N)=O` [Example 2] here?
Its Ki is > 958 nM.

What about the Emax (hGIPR; HEK293, read-out: hGIPR Emax, % ± SEM, 0.1% bovine casein and 1.0% human serum albumin, 37° C., percent of maximal response to GIP(1-42)NH2) of the same compound?
The Emax was 87.8 ± 5.11%.

What about the Emax (hGIPR; HEK293, read-out: hGIPR Emax, % ± SEM, percent of maximal response to GIP(1-42)NH2, 37° C., 0.1% bovine casein, arithmetic mean) of the same compound?
Its Emax is 93 ± 0.813%.

And the EC50 (hGIPR; hGIPR EC50, nM (SEM, n), 0.1% bovine casein and 1.0% human serum albumin, 37° C.)?
Its EC50 is 0.659 nM.

And the EC50 (hGIPR; hGIPR EC50, nM (SEM, n), cAMP, incubated at 37° C., 0.1% bovine casein (no human serum albumin))?
Its EC50 is 0.0154 nM.

And the Emax (hGLP-1R; HEK293, read-out: hGLP-1R Emax, % ± SEM, percent of maximal response to GLP-1(7-36)NH2, 37° C., 0.1% bovine casein, arithmetic mean)?
Its Emax is 93.1 ± 5.83%.

And the EC50 (hGLP-1R; hGLP-1R EC50, nM (SEM, n), 0.1% bovine casein and 1.0% human serum albumin, 37° C., geometric mean)?
Its EC50 is 32.1 nM.

What about the EC50 (hGLP-1R; hGLP-1R EC50, nM (SEM, n), cAMP, incubated at 37° C., 0.1% bovine casein (no human serum albumin), geometric mean) of the same compound?
Its EC50 is 1.14 nM.

What about the EC50 (hGCGR; hGCGR EC50, nM (SEM, n), 0.1% bovine casein and 1.0% human serum albumin, 37° C., geometric mean) of the same compound?
The EC50 was > 9950 nM.

What about the EC50 (hGCGR; hGCGR EC50, nM (SEM, n), cAMP, incubated at 37° C., 0.1% bovine casein (no human serum albumin), geometric mean) of the same compound?
Its EC50 is > 9950 nM.

And the Ki [2]?
The Ki was 1.04 nM.

`CC[C@H](C)[C@H](NC(=O)[C@H](CC(C)C)NC(=O)[C@](C)(Cc1ccc(O)cc1)NC(=O)[C@H](CCCCNC(=O)COCCOCCNC(=O)COCCOCCNC(=O)CC[C@H](NC(=O)CCCCCCCCCOc1ccc(C(=O)O)cc1)C(=O)O)NC(=O)[C@@H](NC(=O)[C@H](Cc1ccccc1)NC(=O)[C@H](CCC(=O)O)NC(=O)C(C)(C)NC(=O)[C@H](CCC(N)=O)NC(=O)[C@H](C)NC(=O)[C@H](CCC(N)=O)NC(=O)[C@H](CCCN)NC(=O)[C@H](CC(=O)O)NC(=O)[C@H](CC(C)C)NC(=O)[C@](C)(CC(C)C)NC(=O)[C@@H](NC(=O)C(C)(C)NC(=O)[C@@H](NC(=O)[C@H](CC(=O)O)NC(=O)[C@H](CO)NC(=O)[C@@H](NC(=O)[C@](C)(Cc1ccccc1F)NC(=O)[C@@H](NC(=O)CNC(=O)[C@H](CCC(=O)O)NC(=O)C(C)(C)NC(=O)[C@@H](N)Cc1ccc(O)cc1)[C@@H](C)O)[C@@H](C)O)C(C)C)[C@@H](C)CC)[C@@H](C)CC)C(=O)N[C@@H](CCCCNC(=O)COCCOCCNC(=O)COCCOCCNC(=O)CC[C@H](NC(=O)CCCCCCCCCOc1ccc(C(=O)O)cc1)C(=O)O)C(=O)NCC(=O)NCC(=O)N1CCC[C@H]1C(=O)N[C@@H](CO)C(=O)N[C@@H](CO)C(=O)NCC(=O)N[C@@H](C)C(=O)N1CCC[C@H]1C(=O)N1CCC[C@H]1C(=O)N1CCC[C@H]1C(=O)N[C@@H](CO)C(N)=O` [Example 446] (H-Y[Aib]EGT[αMePhe(2-F)]TSDV[Aib]I[αMeL]LD[Orn]QAQ[Aib]EFIK([AEEA-AEEA-γGlu-Decanoyl(10-(4-HOOC-PhO))])[αMeY]LIK([AEEA-AEEA-γGlu-Decanoyl(10-(4-HOOC-PhO))])GGPSSGAPPPS-NH2) was tested. Which Ki [1] did it give?
Its Ki is 109 nM.

And the Emax (hGIPR; HEK293, read-out: hGIPR Emax, % ± SEM, cAMP, 37° C., 0.1% bovine casein and 1.0% human serum albumin, percent of maximal response to GIP(1-42)NH2)?
Its Emax is 97%.

What about the Emax (hGIPR; HEK293, read-out: hGIPR Emax, % ± SEM, cAMP, 37° C., 0.1% bovine casein, percent of maximal response to GIP(1-42)NH2, arithmetic mean) of the same compound?
The Emax was 105%.

What about the EC50 (hGIPR; hGIPR EC50, nM (SEM, n), cAMP, 37° C., 0.1% bovine casein (no human serum albumin)) of the same compound?
The EC50 was 0.0164 nM.

And the Emax (hGLP-1R; HEK293, read-out: hGLP-1R Emax, % ± SEM, cAMP, 37° C., 0.1% bovine casein and 1.0% human serum albumin, percent of maximal response to GLP-1(7-36)NH2)?
The Emax was 105%.

And the EC50 (hGLP-1R; hGLP-1R EC50, nM (SEM, n), cAMP, 37° C., 0.1% bovine casein (no human serum albumin), geometric mean)?
Its EC50 is 0.162 nM.

What about the EC50 (hGLP-1R; hGLP-1R EC50, nM (SEM, n), cAMP, 37° C., 0.1% bovine casein and 1.0% human serum albumin, geometric mean (SEM, n)) of the same compound?
Its EC50 is 33.5 nM.

What about the EC50 (hGCGR; hGCGR EC50, nM (SEM, n), cAMP, 37° C., 0.1% bovine casein (no human serum albumin), geometric mean) of the same compound?
The EC50 was > 9950 nM.

What about the EC50 (hGCGR; hGCGR EC50, nM (SEM, n), cAMP, 37° C., 0.1% bovine casein and 1.0% human serum albumin, geometric mean (SEM, n)) of the same compound?
The EC50 was > 9950 nM.

And the Ki [2]?
Its Ki is 0.382 nM.

For `CC[C@H](C)[C@H](NC(=O)[C@H](CCCN)NC(=O)[C@H](CC(=O)O)NC(=O)[C@H](CC(C)C)NC(=O)[C@](C)(CC(C)C)NC(=O)[C@@H](NC(=O)C(C)(C)NC(=O)[C@H](Cc1ccncc1)NC(=O)[C@H](CC(=O)O)NC(=O)[C@H](CO)NC(=O)[C@@H](NC(=O)[C@](C)(Cc1ccccc1F)NC(=O)[C@@H](NC(=O)CNC(=O)[C@H](CCC(=O)O)NC(=O)C(C)(C)NC(=O)[C@@H](N)Cc1ccc(O)cc1)[C@@H](C)O)[C@@H](C)O)[C@@H](C)CC)C(=O)N[C@@H](C)C(=O)N[C@@H](CCC(N)=O)C(=O)NC(C)(C)C(=O)N[C@@H](CCC(=O)O)C(=O)N[C@@H](Cc1ccccc1)C(=O)N[C@H](C(=O)N[C@@H](CCCCNC(=O)COCCOCCNC(=O)COCCOCCNC(=O)CC[C@H](NC(=O)CCCCCCCCCCCCC(=O)O)C(=O)O)C(=O)N[C@@](C)(Cc1ccc(O)cc1)C(=O)N[C@@H](CC(C)C)C(=O)N[C@H](C(=O)N[C@@H](CCCCNC(=O)COCCOCCNC(=O)COCCOCCNC(=O)CC[C@H](NC(=O)CCCCCCCCCCCCC(=O)O)C(=O)O)C(=O)NCC(=O)NCC(=O)N1CCC[C@H]1C(=O)N[C@@H](CO)C(=O)N[C@@H](CO)C(=O)NCC(=O)N[C@@H](C)C(=O)N1CCC[C@H]1C(=O)N1CCC[C@H]1C(=O)N1CCC[C@H]1C(=O)N[C@@H](CO)C(N)=O)[C@@H](C)CC)[C@@H](C)CC` [Example 219], which Ki ([1]; human GcgR, geometric mean (SEM, n), read-out: Binding Affinity Ki, nM (SEM, n) hGCGR) is on record?
Its Ki is 135 nM.

What about the Emax (hGIPR; HEK293, 0.1% bovine casein and 1.0% human serum albumin, 37° C., percent of maximal response to GIP(1-42)NH2, read-out: hGIPR Emax, % ± SEM) of the same compound?
Its Emax is 82.9%.

And the Emax (hGIPR; HEK293, percent of maximal response to GIP(1-42)NH2, 37° C., 0.1% bovine casein, arithmetic mean, read-out: hGIPR Emax, % ± SEM)?
Its Emax is 96.7%.

What about the EC50 (hGIPR; cAMP, incubated at 37° C., 0.1% bovine casein (no human serum albumin), read-out: hGIPR EC50, nM (SEM, n)) of the same compound?
The EC50 was 0.0227 nM.

What about the EC50 (hGLP-1R; cAMP, incubated at 37° C., 0.1% bovine casein (no human serum albumin), geometric mean, read-out: hGLP-1R EC50, nM (SEM, n)) of the same compound?
Its EC50 is 0.376 nM.

What about the EC50 (hGCGR; 0.1% bovine casein and 1.0% human serum albumin, 37° C., geometric mean, read-out: hGCGR EC50, nM (SEM, n)) of the same compound?
Its EC50 is > 9950 nM.

What about the EC50 (hGCGR; cAMP, incubated at 37° C., 0.1% bovine casein (no human serum albumin), geometric mean, read-out: hGCGR EC50, nM (SEM, n)) of the same compound?
Its EC50 is > 9950 nM.
